Patent US20260365671A1, “HETEROCYCLIC COMPOUND” (Takeda Pharmaceutical Company Limited, priority 2022, published 2026)

Tests used:
[1] = test system: NF-κB pathway; test: TNF-α assay (THP-1 cells differentiated to macrophages with IFN-γ, NF-κB pathway activated with LPS; ELISA); format: cell-based, Human; details: Homo sapiens, THP-1, THP-1 macrophages, compound 30 min, 50 ng/mL LPS 3 hours
Outline: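 TNF-α release measured by ELISA after 3 h stimulation with 50 ng/mL LPS, following 30 min compound pretreatment (37 °C, no FBS). Cells were THP-1 macrophages primed with IFN-γ 25 ng/mL for 24 h. IC50 derived by logistic curve fit.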

[2] = target: T1, NLRP3 inflammasome (Homo sapiens, UniProt Q96P20); test: IL-1β TR-FRET assay (THP-1 cells differentiated to macrophages with IFN-γ, LPS primed, ATP activated; HTRF); format: cell-based; details: THP-1 macrophages, 50 ng/mL LPS priming, compound 30 min, 20 mM ATP 2 hours
T1 construct: IL-1beta HTRF
T1 sequence (Q96P20 whole entry): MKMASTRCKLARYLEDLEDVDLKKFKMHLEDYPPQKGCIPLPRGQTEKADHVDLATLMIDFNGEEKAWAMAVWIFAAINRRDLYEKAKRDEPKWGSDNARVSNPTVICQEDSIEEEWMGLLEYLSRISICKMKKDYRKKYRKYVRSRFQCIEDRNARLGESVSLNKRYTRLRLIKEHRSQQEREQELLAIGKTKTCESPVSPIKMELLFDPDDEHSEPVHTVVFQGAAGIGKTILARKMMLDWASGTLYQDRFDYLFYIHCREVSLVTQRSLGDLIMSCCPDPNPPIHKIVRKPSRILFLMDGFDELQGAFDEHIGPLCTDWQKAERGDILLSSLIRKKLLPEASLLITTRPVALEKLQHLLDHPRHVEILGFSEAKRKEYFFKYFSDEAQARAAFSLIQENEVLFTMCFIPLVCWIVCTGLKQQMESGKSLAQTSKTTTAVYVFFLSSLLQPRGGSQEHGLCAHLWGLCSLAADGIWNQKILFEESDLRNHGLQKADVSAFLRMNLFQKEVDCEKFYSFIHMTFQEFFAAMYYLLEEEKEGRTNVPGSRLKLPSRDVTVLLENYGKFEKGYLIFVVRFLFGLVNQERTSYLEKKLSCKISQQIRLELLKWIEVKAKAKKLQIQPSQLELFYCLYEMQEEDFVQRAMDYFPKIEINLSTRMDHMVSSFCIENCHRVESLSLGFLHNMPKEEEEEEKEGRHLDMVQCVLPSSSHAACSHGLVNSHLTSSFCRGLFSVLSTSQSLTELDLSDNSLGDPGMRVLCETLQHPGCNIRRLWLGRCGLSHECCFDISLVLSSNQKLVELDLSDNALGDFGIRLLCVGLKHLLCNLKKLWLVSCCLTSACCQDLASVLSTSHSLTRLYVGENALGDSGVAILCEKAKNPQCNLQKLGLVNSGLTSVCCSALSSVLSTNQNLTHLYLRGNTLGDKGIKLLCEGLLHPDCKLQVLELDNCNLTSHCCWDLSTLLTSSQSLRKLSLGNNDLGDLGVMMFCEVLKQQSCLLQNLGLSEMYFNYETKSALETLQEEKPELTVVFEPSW
Outline: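 IL-1β release was read by HTRF after 16–24 h antibody incubation at room temperature, using supernatants from THP-1-derived macrophages (IFN-γ 25 ng/mL, LPS 50 ng/mL priming) given compound 30 min and then 20 mM ATP for 2 h. % inhibition versus concentration was fitted logistically for IC50.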

SMILES | IC50 [1] [µM] | IC50 [2] [µM]
Cc1cc(C)c(-n2cc3sc(NC4CCN(C(=O)C(C)(C)O)C4)nc3n2)c(O)c1 (centres unmarked) [Example 102, 2-hydroxy-1-(3-{[2-(2-hydroxy-4,6-dimethylphenyl)-2H-pyrazolo[3,4-d][1,3]thiazol-5-yl]amino}pyrrolidin-1-yl)-2-methylpropan-1-one] | > 30 | 0.28
Cc1cc(C)c(-n2cc3sc(NC4CCN(C)C4=O)nc3n2)c(O)c1 (centres unmarked) [Example 103, 3-{[2-(2-hydroxy-4,6-dimethylphenyl)-2H-pyrazolo[3,4-d][1,3]thiazol-5-yl]amino}-1-methylpyrrolidin-2-one] | > 30 | 0.81
Cc1cc(OC(F)F)cc(O)c1-n1cc2sc(N[C@@H]3C[C@@H](F)CN(C)C3)nc2n1 [Example 107, 5-(difluoromethoxy)-2-(5-{[(3R,5R)-5-fluoro-1-methylpiperidin-3-yl]amino}-2H-pyrazolo[3,4-d][1,3]thiazol-2-yl)-3-methylphenol] | > 30 | 0.075
CC(=O)N1CCCC(Nc2nc3nn(-c4c(C)cc(C)cc4O)cc3s2)C1 (centres unmarked) [Example 108, 1-(3-{[2-(2-hydroxy-4,6-dimethylphenyl)-2H-pyrazolo[3,4-d][1,3]thiazol-5-yl]amino}piperidin-1-yl)ethan-1-one] | > 30 | 0.61
CCC(=O)N1CCCC(Nc2nc3nn(-c4c(C)cc(C)cc4O)cc3s2)C1 (centres unmarked) [Example 109, 1-(3-{[2-(2-hydroxy-4,6-dimethylphenyl)-2H-pyrazolo[3,4-d][1,3]thiazol-5-yl]amino}piperidin-1-yl)propan-1-one] | > 30 | 0.59
COC(=O)N1CCCC(Nc2nc3nn(-c4c(C)cc(C)cc4O)cc3s2)C1 (centres unmarked) [Example 110, methyl 3-{[2-(2-hydroxy-4,6-dimethylphenyl)-2H-pyrazolo[3,4-d][1,3]thiazol-5-yl]amino}piperidine-1-carboxylate] | > 30 | 0.99
CNC(=O)N1CCCC(Nc2nc3nn(-c4c(C)cc(C)cc4O)cc3s2)C1 (centres unmarked) [Example 111, 3-{[2-(2-hydroxy-4,6-dimethylphenyl) 2H-pyrazolo[3,4-d][1,3]thiazol-5-yl]amino}-N-methyl-piperidine-1-carboxamide] | > 30 | 0.81
Cc1cc(C)c(-n2cc3sc(NC4CCCN(S(C)(=O)=O)C4)nc3n2)c(O)c1 (centres unmarked) [Example 112, 2-(5-{[1-(methanesulfonyl)piperidin-3-yl]amino}-2H-pyrazolo[3,4-d][1,3]thiazol-2-yl)-3,5-dimethylphenol] | > 10 | 0.55
Cc1cc(C)c(-n2cc3sc(NC4CCCN(C(=O)CC(F)F)C4)nc3n2)c(O)c1 (centres unmarked) [Example 113, 3,3-difluoro-1-(3-{[2-(2-hydroxy-4,6-dimethylphenyl)-2H-pyrazolo[3,4-d][1,3]thiazol-5-yl]amino}piperidin-1-yl)propan-1-one] | > 30 | 0.51
COC(C)(C)CNc1nc2nn(-c3c(C)cc(C)cc3O)cc2s1 [Example 114, 2-{5-[(2-methoxy-2-methylpropyl)amino]-2H-pyrazolo[3,4-d][1,3]thiazol-2-yl}-3,5-dimethylphenol] | > 10 | 1
Cc1cc(C)c(-n2cc3sc(NC4CCC(=O)N(C)C4)nc3n2)c(O)c1 (centres unmarked) [Example 115, 5-{[2-(2-hydroxy-4,6-dimethylphenyl)-2H-pyrazolo[3,4-d][1,3]thiazol-5-yl]amino}-1-methylpiperidin-2-one] | > 30 | 0.49
Cc1cc(C)c(-n2cc3sc(NC[C@@H]4CCCO4)nc3n2)c(O)c1 [Example 116, 3,5-dimethyl-2-[5-({[(2S)-oxolan-2-yl]methyl}amino)-2H-pyrazolo[3,4-d][1,3]thiazol-2-yl]phenol] | > 30 | 1.1
Cc1cc(C)c(-n2cc3sc(NC[C@H]4CCCO4)nc3n2)c(O)c1 [Example 117, 3,5-dimethyl-2-[5-({[(2R)-oxolan-2-yl]methyl}amino)-2H-pyrazolo[3,4-d][1,3]thiazol-2-yl]phenol] | > 10 | 1.3
Cc1cc(C)c(-n2cc3sc(NC4CCCN(C)C4=O)nc3n2)c(O)c1 (centres unmarked) [Example 118, 3-{[2-(2-hydroxy-4,6-dimethylphenyl)-2H-pyrazolo[3,4-d][1,3]thiazol-5-yl]amino}-1-methylpiperidin-2-one] | > 30 | 0.78
CO[C@H](C)CNc1nc2nn(-c3c(C)cc(C)cc3O)cc2s1 [Example 120, 2-(5-{[(2R)-2-methoxypropyl]amino}-2H-pyrazolo[3,4-d][1,3]thiazol-2-yl)-3,5-dimethylphenol] | > 30 | 0.72
Cc1cc(C)c(-n2cc3sc(NC4CCN(S(C)(=O)=O)CC4)nc3n2)c(O)c1 [Example 128, 2-(5-{[1-(methanesulfonyl)piperidin-4-yl]amino}-2H-pyrazolo[3,4-d][1,3]thiazol-2-yl)-3,5-dimethylphenol] | > 30 | 1.2

SMILES | IC50 [1] [µM] | IC50 [2] [µM]
Cc1cc(C)c(-n2cc3sc(NC4CCN(CC(F)F)CC4)nc3n2)c(O)c1 [Example 129, 2-(5-{[1-(2,2-difluoroethyl)piperidin-4-yl]amino}-2H-pyrazolo[3,4-d][1,3]thiazol-2-yl)-3,5-dimethylphenol] | > 10 | 2.3
COC(=O)N1CCC(Nc2nc3nn(-c4c(C)cc(C)cc4O)cc3s2)CC1 [Example 130, methyl 4-{[2-(2-hydroxy-4,6-dimethylphenyl)-2H-pyrazolo[3,4-d][1,3]thiazol-5-yl]amino}piperidine-1-carboxylate] | > 30 | 1.1
CNC(=O)N1CCC(Nc2nc3nn(-c4c(C)cc(C)cc4O)cc3s2)CC1 [Example 131, 4-{[2-(2-hydroxy-4,6-dimethylphenyl)-2H-pyrazolo[3,4-d][1,3]thiazol-5-yl]amino}-N-methylpiperidine-1-carboxamide] | > 30 | 0.58
CCC(=O)N1CCC(Nc2nc3nn(-c4c(C)cc(C)cc4O)cc3s2)CC1 [Example 132, 1-(4-{[2-(2-hydroxy-4,6-dimethylphenyl)-2H-pyrazolo[3,4-d][1,3]thiazol-5-yl]amino}piperidin-1-yl)propan-1-one] | > 30 | 1
CC(=O)N1CCC(Nc2nc3nn(-c4c(C)cc(C)cc4O)cc3s2)CC1 [Example 133, 1-(4-{[2-(2-hydroxy-4,6-dimethylphenyl)-2H-pyrazolo[3,4-d][1,3]thiazol-5-yl]amino}piperidin-1-yl)ethan-1-one] | > 30 | 0.88
COc1cc(C)c(-n2cc3sc(N[C@@H]4CN(C)C[C@H]4F)nc3n2)c(O)c1 [Example 134, 2-(5-{[(3R,4R)-4-fluoro-1-methylpyrrolidin-3-yl]amino}-2H-pyrazolo[3,4-d][1,3]thiazol-2-yl)-5-methoxy-3-methylphenol] | > 10 | 1.5
COc1cc(C)c(-n2cc3sc(N[C@H]4CN(C)C[C@@H]4F)nc3n2)c(O)c1 [Example 135, 2-(5-{[(3S,4S)-4-fluoro-1-methylpyrrolidin-3-yl]amino}-2H-pyrazolo[3,4-d][1,3]thiazol-2-yl)-5-methoxy-3-methylphenol] | > 10 | 0.09
Cc1cc(C)c(-n2cc3sc(N[C@H]4CCN(C)C(=O)C4)nc3n2)c(O)c1 [Example 136, (4S)-4-{[2-(2-hydroxy-4,6-dimethylphenyl)-2H-pyrazolo[3,4-d][1,3]thiazol-5-yl]amino}-1-methylpiperidin-2-one] | > 30 | 3.3
Cc1cc(C)c(-n2cc3sc(N[C@@H]4CCN(C)C(=O)C4)nc3n2)c(O)c1 [Example 137, (4R)-4-{[2-(2-hydroxy-4,6-dimethylphenyl)-2H-pyrazolo[3,4-d][1,3]thiazol-5-yl]amino}-1-methylpiperidin-2-one] | > 30 | 1.1
Cc1cc(C)c(-n2cc3sc(NCC4(F)CCC4)nc3n2)c(O)c1 [Example 138, 2-(5-{[(1-fluorocyclobutyl)methyl]amino}-2H-pyrazolo[3,4-d][1,3]thiazol-2-yl)-3,5-dimethylphenol] | > 10 | 0.6
Cc1cc(C)c(-n2cc3sc(NCC(C)(F)F)nc3n2)c(O)c1 [Example 139, 2-{5-[(2,2-difluoropropyl)amino]-2H-pyrazolo[3,4-d][1,3]thiazol-2-yl}-3,5-dimethylphenol] | > 10 | 0.28
Cc1cc(C)c(-n2cc3sc(NC(C)C(C)O)nc3n2)c(O)c1 (centres unmarked) [Example 140, 2-{5-[(3-hydroxybutan-2-yl)amino]-2H-pyrazolo[3,4-d] [1,3]thiazol-2-yl}-3,5-dimethylphenol] | > 30 | 0.4
Cc1cc(O)c(-n2cc3sc(NC[C@@H](C)O)nc3n2)c(C2CC2(F)F)c1 (stereo partly drawn) [Example 141, 3-(2,2-difluorocyclopropyl)-2-(5-{[(2R)-2-hydroxypropyl]amino}-2H-pyrazolo[3,4-d][1,3]thiazol-2-yl)-5-methylphenol] | > 30 | 0.059
Cc1cc(C)c(-n2cc3sc(N[C@H]4COC[C@H]4F)nc3n2)c(O)c1 [Example 144, 2-(5-{[(3R,4R)-4-fluorooxolan-3-yl]amino}-2H-pyrazolo [3,4-d][1,3]thiazol-2-yl)-3,5-dimethylphenol or 2-(5-{[(3S,4S)-4-fluorooxolan-3-yl]amino}-2H-pyrazolo[3,4-d][1,3]thiazol-2-yl)-3,5-dimethylphenol (tR1)] | > 30 | 0.85
Cc1cc(C)c(-n2cc3sc(NCC(F)F)nc3n2)c(O)c1 [Example 146, 2-{5-[(2,2-difluoroethyl)amino]-2H-pyrazolo[3,4-d][1,3]thiazol-2-yl}-3,5-dimethylphenol] | > 30 | 0.38
